The source of these data is patent US10406140B2, “5-substituted benzimidazole and 5-substituted azabenzimidazole derivative both having AMPK activation effect” (Shionogi & Co., Ltd., priority 2016, dated 2019).

Structures are written as SMILES.

For the assay, the target named is T1, Human AMPK α2ß2γ1 (Homo sapiens, UniProt O43741+P54646).
T1 construct: The full length cDNAs of human AMPK ß2 (NM_005399.3) and human AMPK α2 (NM_006252.3); The full length cDNAs of human AMPK ß2 (NM_005399.3); 6xHis (N); made in house; host or cells: Escherichia coli BL21 CodonPlus (DE3)-RIL
The assay can be described thus: Test Example 2: activator evaluation on phosphorylated human AMPK α2ß2γ1 (mobility-shift assay, FL-Peptide 7). The class given is biochemical. As to conditions: human AMPK α2ß2γ1 pre-phosphorylated with CaMKK2; for EC150 (compound concentration showing 150% relative to the control (100%)): 25° C., 2 hours, 1% DMSO; for Emax: control without compound = 100%, read-out: Emax (maximum rate of increase in activity within the measurement range). Here is the method:
The full length cDNAs of human AMPK ß2 (NM_005399.3) and human AMPK α2 (NM_006252.3) were inserted into the MCS1 and MCS2 of the pETDuet-1 vector to prepare a human AMPK ß2 and human AMPK α2 (6× His tag at the 5′ terminus) expressing plasmid. The plasmid was cotransfected with an expression plasmid, in which the full length cDNA of human AMPK γ1 (NM_002733.3) had been inserted into pET28b(+), into BL21 CodonPlus (DE3)-RIL to obtain an expression strain. The expression strain was cultured in TB medium, followed by induction with 0.5 mM IPTG, and cultured at 25° C. for 3 hours and then harvested.
Preparation method of human CaMKK2 used to impart activity to AMPK An expression vector, in which the full length cDNA of human CAMKK ß (NM_172226.1) had been inserted into pGEX-6P-3, was transfected into BL21 Star (DE3). The expression strain was cultured in TB medium, followed by induction with 0.5 mM IPTG, and cultured at 25° C. for 3 hours and then harvested.
Thus, phosphorylation treatment was carried out as pretreatment.
Human AMPK α2ß2γ1 in an amount to give a conversion rate of approximately 10% by reaction for 2 hours, and CaMKK2 in an amount capable of sufficiently imparting activity to AMPK for one hour were mixed in a buffer solution consisting of a 50 mM HEPES-NaOH buffer solution (pH 7.0), 100 mM NaCl, 5 mM magnesium chloride, 0.1% bovine serum albumin, 0.2 mM sodium orthovanadate(V), 1 mM ethylene glycol-bis(2-aminoethyl ether)-N,N,N′,N′-tetraacetic acid (EGTA), 5 mM disodium ß-glycerophosphate, 1 mM dithiothreitol and 0.2 mM ATP, and the resulting liquid was left to stand at 25° C. for 1 to 1.5 hours to sufficiently phosphorylate AMPK.
The resulting liquid was left to stand for 10 minutes.
The resulting liquid was allowed to react at 25° C. for 2 hours, and 10 μl of 20 mM EDTA was added thereto to stop the reaction.
To detect phosphorylated fluorescent substrates, the reaction mixture was applied to a measuring device, LabChip EZ Reader II manufactured by Caliper Life Science, Inc., for detecting fluorescence by using differences in mobility due to differences in charge. The setting conditions for the device were pressure, −1.5 PSI; upstream voltage, −2250 V; downstream voltage, −400 V; post sample buffer sip time, 40 seconds; final delay, 120 seconds; and peak order, Product First.
A conversion rate was calculated from the peak heights of the obtained substrate and product. The conversion rate when not containing a compound was used as a control, and a concentration dependent curve was made by plotting the rate of increase in activity to the control at each concentration of a compound.

T1 sequence (P54646 whole entry): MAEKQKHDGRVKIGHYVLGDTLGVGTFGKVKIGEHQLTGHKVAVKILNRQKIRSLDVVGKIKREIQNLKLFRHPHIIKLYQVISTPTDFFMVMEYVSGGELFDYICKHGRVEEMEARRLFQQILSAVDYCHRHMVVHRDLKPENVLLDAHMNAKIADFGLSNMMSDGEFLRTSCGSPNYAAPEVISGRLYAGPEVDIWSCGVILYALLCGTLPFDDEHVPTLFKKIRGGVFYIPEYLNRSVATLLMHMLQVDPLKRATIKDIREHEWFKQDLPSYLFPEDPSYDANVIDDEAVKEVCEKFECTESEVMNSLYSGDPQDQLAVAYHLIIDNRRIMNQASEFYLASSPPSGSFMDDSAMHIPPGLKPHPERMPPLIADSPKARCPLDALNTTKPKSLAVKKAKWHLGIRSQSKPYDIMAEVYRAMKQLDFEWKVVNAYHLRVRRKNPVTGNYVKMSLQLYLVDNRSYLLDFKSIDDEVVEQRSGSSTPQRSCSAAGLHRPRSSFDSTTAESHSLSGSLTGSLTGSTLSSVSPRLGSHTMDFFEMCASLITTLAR
T1 sequence (O43741 whole entry): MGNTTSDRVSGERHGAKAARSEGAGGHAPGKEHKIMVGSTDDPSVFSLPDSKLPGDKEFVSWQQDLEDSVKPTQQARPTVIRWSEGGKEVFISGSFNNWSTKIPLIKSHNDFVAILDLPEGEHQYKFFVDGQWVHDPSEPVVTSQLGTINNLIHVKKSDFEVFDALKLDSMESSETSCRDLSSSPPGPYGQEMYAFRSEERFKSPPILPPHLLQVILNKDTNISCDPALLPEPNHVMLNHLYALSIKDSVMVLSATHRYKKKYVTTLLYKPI
T1 sequence (P54619 whole entry partner): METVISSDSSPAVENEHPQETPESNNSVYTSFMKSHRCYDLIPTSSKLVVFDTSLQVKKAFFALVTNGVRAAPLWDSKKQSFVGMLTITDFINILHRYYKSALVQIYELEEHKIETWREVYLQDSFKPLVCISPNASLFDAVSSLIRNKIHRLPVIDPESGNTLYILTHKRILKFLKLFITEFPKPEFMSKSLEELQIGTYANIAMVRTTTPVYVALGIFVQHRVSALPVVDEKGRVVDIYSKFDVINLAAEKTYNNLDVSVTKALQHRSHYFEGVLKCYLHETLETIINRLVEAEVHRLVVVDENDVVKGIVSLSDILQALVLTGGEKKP

For orientation: Emax means the maximal effect, on the per cent scale that the assay sets. Regarding `CS(C)(=O)=Nc1ccc(-c2ccc(-c3nc4nc(O[C@@H]5CO[C@H]6[C@@H]5OC[C@H]6O)[nH]c4cc3F)cc2)cc1` [Compound (I-1-2)], the “EC150 (compound concentration showing 150% relative to the control (100%))” value is on record as 0.93 nM and the Emax is 556%.
With `CS(C)(=O)=Nc1ccc(-c2ccc(-c3nc4nc(OCCO)[nH]c4cc3Cl)cc2)cc1` [Compound (I-1-3)], the “EC150 (compound concentration showing 150% relative to the control (100%))” value was 19 nM and the Emax is 235%.
On to `CC(=O)NC(C)(C)c1ccc(Oc2nc3nc(-c4ccc(-c5ccc(N=S(C)(C)=O)cc5)cc4)c(Cl)cc3[nH]2)cc1` [Compound (I-1-4)], for which the “EC150 (compound concentration showing 150% relative to the control (100%))” value is 3.8 nM and the Emax is 364%.
As for `CS(C)(=O)=Nc1ccc(-c2ccc(-c3nc4nc(O[C@@H]5CO[C@H](CO)[C@H]5F)[nH]c4cc3Cl)cc2)cc1` [Compound (I-1-5)], the “EC150 (compound concentration showing 150% relative to the control (100%))” value is recorded as 1.4 nM and the Emax turned out to be 539%.
`CS(C)(=O)=Nc1ccc(-c2ccc(-c3nc4nc(O[C@@H]5CO[C@H](CO)[C@@H]5F)[nH]c4cc3Cl)cc2)cc1` [Compound (I-1-6)]: the “EC150 (compound concentration showing 150% relative to the control (100%))” value is listed as 7.4 nM and the Emax is 514%.
Take `CS(C)(=O)=Nc1ccc(-c2ccc(-c3nc4nc(O[C@@H]5CO[C@H](CO)C5(F)F)[nH]c4cc3Cl)cc2)cc1` [Compound (I-1-7)]: the “EC150 (compound concentration showing 150% relative to the control (100%))” value amounted to 2.1 nM and the Emax came to 504%.
Taken in the same sequence, the figures for `COC(=O)NC1CC=C(c2ccc(-c3nc4nc(O[C@@H]5CO[C@H](CO)[C@H]5F)[nH]c4cc3Cl)cc2)CC1` (some centres unmarked) [Compound (I-1-8)] were 21 nM and 412%.
The like results for `COC(=O)NC1CC=C(c2ccc(-c3nc4nc(O[C@@H]5CO[C@H](CO)C5(F)F)[nH]c4cc3Cl)cc2)CC1` (some centres unmarked) [Compound (I-1-9)] were, in that order, 9.5 nM and 389%.
Taken in the same sequence, the figures for `CS(C)(=O)=Nc1ccc(-c2ccc(-c3nc4nc(O[C@@H]5CO[C@H](CO)[C@H]5F)[nH]c4cc3F)cc2)cc1` [Compound (I-1-10)] were 3.1 nM and 399%.
As for `CS(C)(=O)=Nc1ccc(-c2ccc(-c3nc4nc(O[C@@H]5CO[C@H](CO)C5(F)F)[nH]c4cc3F)cc2)cc1` [Compound (I-1-11)], the “EC150 (compound concentration showing 150% relative to the control (100%))” value came out at 1.1 nM and the Emax was 601%.
In the case of `CNS(C)(=O)=Nc1ccc(-c2ccc(-c3nc4nc(O[C@@H]5CO[C@H](CO)C5(F)F)[nH]c4cc3Cl)cc2)cc1` (some centres unmarked) [Compound (I-1-12)], the “EC150 (compound concentration showing 150% relative to the control (100%))” value is on record as 2.4 nM and the Emax came to 649%.
As for `CN=S(C)(=N)c1ccc(-c2ccc(-c3nc4nc(O[C@@H]5CO[C@H](CO)C5(F)F)[nH]c4cc3Cl)cc2)cc1` (some centres unmarked) [Compound (I-2-2)], the “EC150 (compound concentration showing 150% relative to the control (100%))” value was found to be 3.1 nM and the Emax came out at 604%.
Regarding `CS(C)(=O)=Nc1ccc(-c2ccc(-c3nc4nc(O[C@@H]5CO[C@H](CO)C5(F)F)[nH]c4cc3Cl)c(F)c2)cc1` [Compound (I-2-3)], the “EC150 (compound concentration showing 150% relative to the control (100%))” value is reported as 4.2 nM and the Emax came out at 609%.
Taken in the same sequence, the figures for `CS(C)(=O)=Nc1ccc(-c2ccc(-c3nc4nc(O[C@@H]5CO[C@H](CO)C5(F)F)[nH]c4cc3Cl)cc2)nc1` [Compound (I-2-4)] were 9.7 nM and 493%.
As to `CCS(=O)(CC)=Nc1ccc(-c2ccc(-c3nc4nc(O[C@@H]5CO[C@H](CO)C5(F)F)[nH]c4cc3Cl)cc2)cc1` [Compound (I-2-5)], the “EC150 (compound concentration showing 150% relative to the control (100%))” value amounted to 6.2 nM and the Emax worked out at 575%.
For the compound `O=S1(=Nc2ccc(-c3ccc(-c4nc5nc(O[C@@H]6CO[C@H](CO)C6(F)F)[nH]c5cc4Cl)cc3)cc2)CCOCC1` [Compound (I-2-6)], the “EC150 (compound concentration showing 150% relative to the control (100%))” value was 3.0 nM and the Emax amounted to 578%.
The like results for `CS(C)(=O)=Nc1ccc(-c2ccc(-c3nc4nc(O[C@@H]5CO[C@H](CO)C5(F)F)[nH]c4cc3F)cc2)nc1` [Compound (I-2-7)] were, in that order, 3.1 nM and 445%.
As to `CS(C)(=O)=Nc1ccc(-c2ccc(-c3nc4nc(O[C@@H]5CO[C@H](CO)C5(F)F)[nH]c4cc3F)c(F)c2)cc1` [Compound (I-2-8)], the “EC150 (compound concentration showing 150% relative to the control (100%))” value came to 0.75 nM and the Emax amounted to 619%.
Taken in the same sequence, the figures for `CS(C)(=O)=NC1CC=C(c2ccc(-c3nc4nc(O[C@@H]5CO[C@H](CO)C5(F)F)[nH]c4cc3Cl)cc2)CC1` (some centres unmarked) [Compound (I-2-9)] were 1.3 nM and 652%.
The like results for `CS(C)(=O)=NC1CC=C(c2ccc(-c3nc4nc(O[C@@H]5CO[C@H](CO)C5(F)F)[nH]c4cc3F)cc2)CC1` (some centres unmarked) [Compound (I-2-10)] were, in that order, 2.1 nM and 604%.
Taken in the same sequence, the figures for `CN=S(C)(=N)c1ccc(-c2ccc(-c3nc4nc(O[C@@H]5CO[C@H](CO)C5(F)F)[nH]c4cc3F)cc2)cc1` (some centres unmarked) [Compound (I-2-11)] were 1.2 nM and 649%.
Consider `CCS(=O)(CC)=Nc1ccc(-c2ccc(-c3nc4nc(O[C@@H]5CO[C@H](CO)C5(F)F)[nH]c4cc3F)cc2)cc1` [Compound (I-2-12)], for which the “EC150 (compound concentration showing 150% relative to the control (100%))” value turned out to be 0.54 nM and the maximal effect (Emax) came to 595%.
